Measurements reported in ChEMBL document CHEMBL4665834 (J Med Chem, 2020).
Each block holds one compound with its values, some of them ahead of it. The source made the active and inactive calls. The calls are words filed in the database; no cut-off is given here.

Assays:
[1] = Maximum oral bioavailability in rat hepatocytes based well stirred liver model at 1 uM measured after 2 to 90 mins by LC-MS/MS analysis; assay type: ADME, Hepatocyte; conditions: time 2-90 min, read-out: Fmax
[2] = Clearance in Wistar rat hepatocytes assessed as extrapolated blood clearance at 1 uM measured after 2 to 90 mins by LC-MS/MS analysis; assay type: ADME, cell-based, Hepatocyte; conditions: time 2-90 min
[3] = Clearance in Wistar rat at 0.3 to 1 mg/kg, iv administered as bolus dose or 15 mins infusion by LC-MS/MS analysis; assay type: ADME, organism-based; conditions: Wistar, in vivo, dose 0.3-1 mg/kg
[4] = Protein binding in pooled human plasma assessed as unbound fraction incubated for 6 hrs by LC-MS/MS analysis based equilibrium dialysis method; assay type: ADME, cell-free
[5] = biological target: T1, Prostaglandin F2-alpha receptor (Homo sapiens, UniProt P43088); test: Displacement of [3H]PGF2alpha from full-length recombinant human FP receptor expressed in HEK293 cell membranes measured after 60 mins by scintillation counting method
T1 sequence (P43088 whole entry): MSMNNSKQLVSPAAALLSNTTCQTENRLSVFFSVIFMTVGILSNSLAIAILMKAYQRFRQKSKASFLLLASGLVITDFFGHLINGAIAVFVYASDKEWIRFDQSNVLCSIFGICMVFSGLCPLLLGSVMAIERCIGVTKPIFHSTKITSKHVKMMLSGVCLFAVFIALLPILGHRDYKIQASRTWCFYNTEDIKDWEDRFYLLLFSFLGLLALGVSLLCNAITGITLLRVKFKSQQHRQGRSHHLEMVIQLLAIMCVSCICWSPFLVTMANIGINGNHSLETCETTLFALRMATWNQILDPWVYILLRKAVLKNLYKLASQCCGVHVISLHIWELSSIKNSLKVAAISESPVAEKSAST

[6] = biological target: T1, Prostaglandin F2-alpha receptor; test: Antagonist activity at human FPR expressed in human Chem-1 cells assessed as inhibition of PGF2alpha-induced calcium flux preincubated for 10 mins followed by PGF2alpha stimulation and measured for 120 secs by fluo-8 AM dye based fluorescence assay; assay type: functional, cell-based
[7] = Lipophilicity, log D of compound at pH 7.5 by HPLC analysis; conditions: buffer
Homo sapiens [8] = species: Homo sapiens; test: Selectivity ratio of IC50 for displacement of [3H]prostaglandin E2 from full-length recombinant human EP4 receptor expressed in Chem-1 cell membranes to IC50 for displacement of [3H]PGF2alpha from full-length recombinant human FP receptor expressed in HEK293 cell membranes
[9] = Relative oral bioavailability in Wistar rat at 1 to 3 mg/kg administered via gavage using crystalline form of sample in sodium salt formulation by LC-MS/MS analysis; assay type: ADME, organism-based; conditions: in vivo, dose 1-3 mg/kg
[10] = Half life in Wistar rat at 0.3 to 1 mg/kg, iv administered as bolus dose by LC-MS/MS analysis; assay type: ADME, organism-based; conditions: in vivo, dose 0.3-1 mg/kg
[11] = Oral bioavailability in Wistar rat at 1 to 3 mg/kg administered via gavage using EtOH/PEG400/H2O 10/40/50 formulation by LC-MS/MS analysis; assay type: ADME, organism-based; conditions: in vivo, dose 1-3 mg/kg
Cytochrome P450 3A4 = Cytochrome P450 3A4 (Homo sapiens, UniProt P08684); test: Inhibition of CYP3A4 in human liver microsomes using midazolam as substrate incubated for 10 mins in presence of NADPH generating system by LC-MS/MS analysis
Chain of Cytochrome P450 3A4 (P08684 whole entry): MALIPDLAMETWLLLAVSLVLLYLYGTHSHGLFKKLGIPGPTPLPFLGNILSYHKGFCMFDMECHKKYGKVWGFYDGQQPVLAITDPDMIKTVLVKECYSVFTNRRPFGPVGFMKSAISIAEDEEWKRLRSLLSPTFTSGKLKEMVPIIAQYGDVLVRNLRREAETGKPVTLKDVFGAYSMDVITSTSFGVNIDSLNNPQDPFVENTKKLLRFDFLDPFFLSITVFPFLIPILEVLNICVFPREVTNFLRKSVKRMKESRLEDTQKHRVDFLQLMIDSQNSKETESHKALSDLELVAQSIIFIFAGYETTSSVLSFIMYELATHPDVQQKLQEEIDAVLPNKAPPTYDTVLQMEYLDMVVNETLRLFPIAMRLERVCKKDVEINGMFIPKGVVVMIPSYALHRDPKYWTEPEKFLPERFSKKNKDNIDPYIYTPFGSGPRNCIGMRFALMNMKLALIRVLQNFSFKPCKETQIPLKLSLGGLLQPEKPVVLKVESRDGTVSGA

Prostacyclin receptor = Prostacyclin receptor (Homo sapiens, UniProt P43119); test: Displacement of [3H]PGD2 from full-length recombinant human IP receptor expressed in HEK293 cell membranes measured after 60 mins by scintillation counting method
Chain of Prostacyclin receptor (P43119 whole entry): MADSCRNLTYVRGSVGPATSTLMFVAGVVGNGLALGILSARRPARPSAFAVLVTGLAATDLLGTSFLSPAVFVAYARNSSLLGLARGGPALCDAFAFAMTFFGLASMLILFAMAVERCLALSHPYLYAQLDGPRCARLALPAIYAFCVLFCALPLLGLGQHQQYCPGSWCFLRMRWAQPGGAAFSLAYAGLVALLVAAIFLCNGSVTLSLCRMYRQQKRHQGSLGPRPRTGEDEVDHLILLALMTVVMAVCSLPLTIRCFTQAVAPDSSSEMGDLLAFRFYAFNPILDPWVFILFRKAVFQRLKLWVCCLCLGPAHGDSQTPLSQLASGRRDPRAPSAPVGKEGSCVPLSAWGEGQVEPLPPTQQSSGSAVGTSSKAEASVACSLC

[12] = biological target: Prostaglandin D2 receptor (Homo sapiens) (UniProt Q13258); test: Displacement of [3H]PGD2 from full-length recombinant human DP1 receptor expressed in Chem-1 cell membranes measured after 120 mins by scintillation counting method
[13] = biological target: Prostaglandin E2 receptor EP4 subtype (Homo sapiens, UniProt P35408); test: Displacement of [3H]prostaglandin E2 from full-length recombinant human EP4 receptor expressed in HEK293 cell membranes measured after 120 mins by scintillation counting method
Chain of Prostaglandin E2 receptor EP4 subtype (P35408 whole entry): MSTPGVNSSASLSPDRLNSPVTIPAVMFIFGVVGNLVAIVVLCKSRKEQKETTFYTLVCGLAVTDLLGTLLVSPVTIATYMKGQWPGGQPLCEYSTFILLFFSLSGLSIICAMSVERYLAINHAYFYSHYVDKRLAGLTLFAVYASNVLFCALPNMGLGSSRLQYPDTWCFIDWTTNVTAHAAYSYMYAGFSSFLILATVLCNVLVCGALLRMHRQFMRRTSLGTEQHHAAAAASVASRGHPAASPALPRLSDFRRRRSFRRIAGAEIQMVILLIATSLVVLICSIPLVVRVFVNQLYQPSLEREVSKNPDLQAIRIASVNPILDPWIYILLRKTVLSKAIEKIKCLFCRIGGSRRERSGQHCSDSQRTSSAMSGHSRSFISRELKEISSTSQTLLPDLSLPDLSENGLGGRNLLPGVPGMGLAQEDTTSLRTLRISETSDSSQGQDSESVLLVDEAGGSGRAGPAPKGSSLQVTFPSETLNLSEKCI

[14] = biological target: Prostaglandin E2 receptor EP3 subtype (Homo sapiens) (UniProt P43115); test: Displacement of [3H]prostaglandin E2 from full-length recombinant human EP3 receptor expressed in HEK293 cell membranes measured after 120 mins by scintillation counting method
Chain of Prostaglandin E2 receptor EP3 subtype (Homo sapiens) (P43115 whole entry): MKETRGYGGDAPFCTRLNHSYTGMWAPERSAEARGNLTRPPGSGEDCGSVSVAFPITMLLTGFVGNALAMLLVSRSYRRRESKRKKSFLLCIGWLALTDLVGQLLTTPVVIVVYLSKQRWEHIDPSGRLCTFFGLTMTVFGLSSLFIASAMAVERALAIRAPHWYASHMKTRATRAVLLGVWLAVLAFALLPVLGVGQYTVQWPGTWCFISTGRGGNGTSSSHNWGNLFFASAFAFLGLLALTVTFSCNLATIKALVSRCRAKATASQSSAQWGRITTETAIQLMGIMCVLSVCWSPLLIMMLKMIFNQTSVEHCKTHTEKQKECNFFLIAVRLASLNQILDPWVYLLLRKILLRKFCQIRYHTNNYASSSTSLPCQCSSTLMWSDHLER

[15] = biological target: Prostaglandin E2 receptor EP2 subtype (Homo sapiens, UniProt P43116); test: Displacement of [3H]prostaglandin E2 from full-length recombinant human EP2 receptor expressed in HEK293 cell membranes measured after 120 mins by scintillation counting method
Chain of Prostaglandin E2 receptor EP2 subtype (P43116 whole entry): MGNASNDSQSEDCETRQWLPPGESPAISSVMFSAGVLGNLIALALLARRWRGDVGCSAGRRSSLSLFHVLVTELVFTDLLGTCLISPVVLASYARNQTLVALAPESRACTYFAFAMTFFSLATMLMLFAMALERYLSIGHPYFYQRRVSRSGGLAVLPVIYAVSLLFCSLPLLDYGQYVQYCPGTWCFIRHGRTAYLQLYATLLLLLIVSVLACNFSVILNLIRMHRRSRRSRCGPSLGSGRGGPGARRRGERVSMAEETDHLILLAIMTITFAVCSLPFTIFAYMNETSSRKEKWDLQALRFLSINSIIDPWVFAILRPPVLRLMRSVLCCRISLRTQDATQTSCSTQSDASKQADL

[16] = biological target: Prostaglandin E2 receptor EP1 subtype (Homo sapiens) (UniProt P34995); test: Displacement of [3H]prostaglandin E2 from full-length recombinant human EP1 receptor expressed in HEK293 cell membranes measured after 60 mins by scintillation counting method
Chain of Prostaglandin E2 receptor EP1 subtype (Homo sapiens) (P34995 whole entry): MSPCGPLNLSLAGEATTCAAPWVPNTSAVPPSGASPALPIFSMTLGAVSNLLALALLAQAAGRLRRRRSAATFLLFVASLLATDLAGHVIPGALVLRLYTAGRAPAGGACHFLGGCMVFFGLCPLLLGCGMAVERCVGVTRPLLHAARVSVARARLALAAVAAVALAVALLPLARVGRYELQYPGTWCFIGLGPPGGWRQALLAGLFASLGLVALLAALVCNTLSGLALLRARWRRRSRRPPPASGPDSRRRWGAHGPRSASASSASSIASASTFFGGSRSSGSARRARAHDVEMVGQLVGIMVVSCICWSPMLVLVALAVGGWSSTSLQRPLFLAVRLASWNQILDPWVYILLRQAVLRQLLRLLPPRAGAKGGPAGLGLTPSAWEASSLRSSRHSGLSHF

Homo sapiens [17] = species: Homo sapiens; test: Selectivity ratio of IC50 for displacement of [3H]PGD2 from full-length recombinant human IP receptor expressed in HEK293 cell membranes to IC50 for displacement of [3H]PGF2alpha from full-length recombinant human FP receptor expressed in HEK293 cell membranes
Homo sapiens [18] = species: Homo sapiens; test: Selectivity ratio of IC50 for displacement of [3H]PGD2 from full-length recombinant human DP1 receptor expressed in Chem-1 cell membranes to IC50 for displacement of [3H]PGF2alpha from full-length recombinant human FP receptor expressed in HEK293 cell membranes
Homo sapiens [19] = species: Homo sapiens; test: Selectivity ratio of IC50 for displacement of [3H]prostaglandin E2 from full-length recombinant human EP3 receptor expressed in HEK293 cell membranes to IC50 for displacement of [3H]PGF2alpha from full-length recombinant human FP receptor expressed in HEK293 cell membranes
Homo sapiens [20] = species: Homo sapiens; test: Selectivity ratio of IC50 for displacement of [3H]prostaglandin E2 from full-length recombinant human EP2 receptor expressed in HEK293 cell membranes to IC50 for displacement of [3H]PGF2alpha from full-length recombinant human FP receptor expressed in HEK293 cell membranes
Homo sapiens [21] = species: Homo sapiens; test: Selectivity ratio of IC50 for displacement of [3H]prostaglandin E2 from full-length recombinant human EP1 receptor expressed in HEK293 cell membranes to IC50 for displacement of [3H]PGF2alpha from full-length recombinant human FP receptor expressed in HEK293 cell membranes
Cytochrome P450 2D6 = Cytochrome P450 2D6 (Homo sapiens, UniProt P10635); test: Inhibition of CYP2D6 in human liver microsomes using dextromethorphan as substrate incubated for 15 mins in presence of NADPH generating system by LC-MS/MS analysis; assay type: ADME
Chain of Cytochrome P450 2D6 (P10635 whole entry): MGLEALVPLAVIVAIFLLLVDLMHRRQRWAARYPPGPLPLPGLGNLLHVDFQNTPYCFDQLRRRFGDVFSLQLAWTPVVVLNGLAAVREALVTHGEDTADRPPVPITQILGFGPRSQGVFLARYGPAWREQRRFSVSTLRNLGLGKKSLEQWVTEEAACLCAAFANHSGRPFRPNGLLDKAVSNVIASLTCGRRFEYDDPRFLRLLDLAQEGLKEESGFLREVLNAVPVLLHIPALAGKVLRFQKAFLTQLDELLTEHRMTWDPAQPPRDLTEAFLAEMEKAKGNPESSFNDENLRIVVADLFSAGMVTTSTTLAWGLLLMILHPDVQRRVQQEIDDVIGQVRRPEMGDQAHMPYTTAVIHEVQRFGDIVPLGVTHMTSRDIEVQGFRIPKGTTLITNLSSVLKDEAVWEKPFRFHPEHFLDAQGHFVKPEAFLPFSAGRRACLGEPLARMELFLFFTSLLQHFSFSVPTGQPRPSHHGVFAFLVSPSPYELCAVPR

Cytochrome P450 2C9 = Cytochrome P450 2C9 (Homo sapiens, UniProt P11712); test: Inhibition of CYP2C9 in human liver microsomes using diclofenac as substrate incubated for 15 mins in presence of NADPH generating system by LC-MS/MS analysis; assay type: ADME
Chain of Cytochrome P450 2C9 (P11712 whole entry): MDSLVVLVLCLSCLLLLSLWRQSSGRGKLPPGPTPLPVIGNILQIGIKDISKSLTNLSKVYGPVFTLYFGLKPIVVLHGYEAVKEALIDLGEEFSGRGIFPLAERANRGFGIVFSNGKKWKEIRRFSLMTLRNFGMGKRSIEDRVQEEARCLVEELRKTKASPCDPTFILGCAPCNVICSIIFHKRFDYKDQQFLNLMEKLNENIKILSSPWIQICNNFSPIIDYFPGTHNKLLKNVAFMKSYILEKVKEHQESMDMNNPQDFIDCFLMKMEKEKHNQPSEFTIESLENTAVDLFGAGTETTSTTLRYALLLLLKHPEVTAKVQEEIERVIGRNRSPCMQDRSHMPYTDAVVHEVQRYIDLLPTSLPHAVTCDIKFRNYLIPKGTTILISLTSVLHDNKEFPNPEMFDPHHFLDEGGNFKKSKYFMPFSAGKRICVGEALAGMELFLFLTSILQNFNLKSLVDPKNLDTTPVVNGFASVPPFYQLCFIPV

Cytochrome P450 2C8 = Cytochrome P450 2C8 (Homo sapiens, UniProt P10632); test: Inhibition of CYP2C8 in human liver microsomes using amodiaquine as substrate incubated for 15 mins in presence of NADPH generating system by LC-MS/MS analysis; assay type: ADME
Chain of Cytochrome P450 2C8 (P10632 whole entry): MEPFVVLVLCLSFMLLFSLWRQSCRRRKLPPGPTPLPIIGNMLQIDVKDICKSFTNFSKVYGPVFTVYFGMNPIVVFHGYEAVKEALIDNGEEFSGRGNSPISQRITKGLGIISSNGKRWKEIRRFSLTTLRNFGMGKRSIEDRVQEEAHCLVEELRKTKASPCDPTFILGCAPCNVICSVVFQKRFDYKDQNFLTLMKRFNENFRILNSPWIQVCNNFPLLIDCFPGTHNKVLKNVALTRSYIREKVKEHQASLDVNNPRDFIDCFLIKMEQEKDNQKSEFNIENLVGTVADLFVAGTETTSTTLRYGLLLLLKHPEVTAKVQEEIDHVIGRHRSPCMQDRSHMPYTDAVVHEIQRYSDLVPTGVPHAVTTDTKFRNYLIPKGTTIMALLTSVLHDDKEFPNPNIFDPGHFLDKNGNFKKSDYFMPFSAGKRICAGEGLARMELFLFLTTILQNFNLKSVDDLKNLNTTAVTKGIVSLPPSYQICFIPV

Cytochrome P450 1A2 = Cytochrome P450 1A2 (Homo sapiens, UniProt P05177); test: Inhibition of CYP1A2 in human liver microsomes using phenacetin as substrate incubated for 15 mins in presence of NADPH generating system by LC-MS/MS analysis; assay type: ADME
Chain of Cytochrome P450 1A2 (P05177 whole entry): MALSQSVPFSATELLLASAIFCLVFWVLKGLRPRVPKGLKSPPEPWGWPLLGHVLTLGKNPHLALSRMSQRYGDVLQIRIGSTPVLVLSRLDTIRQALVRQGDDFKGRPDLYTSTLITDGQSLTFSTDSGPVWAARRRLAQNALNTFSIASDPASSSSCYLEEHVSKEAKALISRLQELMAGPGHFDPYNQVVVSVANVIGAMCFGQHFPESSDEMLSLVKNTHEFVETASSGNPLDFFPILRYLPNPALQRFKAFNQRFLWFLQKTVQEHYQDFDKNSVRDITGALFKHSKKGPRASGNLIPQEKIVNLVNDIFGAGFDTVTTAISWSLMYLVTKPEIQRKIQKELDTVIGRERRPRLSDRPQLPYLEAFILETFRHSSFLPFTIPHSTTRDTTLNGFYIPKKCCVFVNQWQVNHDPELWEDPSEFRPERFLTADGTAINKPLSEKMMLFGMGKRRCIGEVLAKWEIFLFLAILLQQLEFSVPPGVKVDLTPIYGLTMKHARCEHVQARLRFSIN

[22] = Clearance in Wistar rat at 0.3 to 1 mg/kg, iv administered as bolus dose by LC-MS/MS analysis; assay type: ADME, organism-based; conditions: in vivo, dose 0.3-1 mg/kg
[23] = Oral bioavailability in Wistar rat at 1 to 3 mg/kg administered via gavage using EtOH/PEG400/H2O/DMSO 8/40/50/2 formulation by LC-MS/MS analysis; assay type: ADME, organism-based; conditions: in vivo, dose 1-3 mg/kg
[24] = Efflux ratio of apparent permeability across basolateral to apical side over apical to basolateral side in human Caco-2 cells measured after 2 hrs by HPLC analysis; assay type: ADME, cell-based
[25] = Apparent permeability in human Caco-2 cells measured after 2 hrs by HPLC analysis; assay type: ADME, cell-based

bioavailability [9]: 80%
SMILES: Cc1c(-c2ccccc2)nc2ccc(Br)cc2c1C(=O)NC12CCC(C(=O)[O-])(CC1)CC2.[Na+]

clearance [22]: 50 mL/min/kg
efflux ratio at 2 h [24]: 10
IC50 [6]: 0.0052 µM
SMILES: Cc1c(-c2ccccc2)nc2ccc(Br)cc2c1C(=O)Nc1ccc(-c2nnn[nH]2)cc1F
Ratio IC50 (Homo sapiens [8]): 50

Papp at 2 h [25]: 40.1 ×10⁻⁶ cm/s
clearance [3]: 33.3 mL/min/kg
IC50 (Cytochrome P450 3A4): 13 µM
SMILES: Cc1c(-c2ccccc2)nc2ccc(Br)cc2c1C(=O)NCC(CCCC(=O)O)c1ccccc1Cl (stereo in doubt; 44)

Further lines, the compound ahead of its results:

SMILES: COc1ccccc1C(C)CNC(=O)c1c(C)c(-c2ccccc2)nc2ccc(Br)cc12 (single isomer, unassigned; (-))
Fh at 1 µM [1]: 6%
CLhep predicted at 1 µM [2]: 65 mL/min/kg
clearance [3]: 63.3 mL/min/kg
fraction unbound at 6 h [4]: < 0.01
IC50 [5]: < 0.001 µM
IC50 [6]: 0.014 µM

SMILES: Cc1c(-c2ccccc2)nc2ccc(Br)cc2c1C(=O)NCCc1cccnc1
Fh at 1 µM [1]: 4%
logD [7]: 2.6
Ratio IC50 (Homo sapiens [8]): > 7.7
IC50 [6]: 3.4 µM

SMILES: Cc1c(-c2ccccc2)nc2ccc(Br)cc2c1C(=O)NCC(CCC(=O)O)c1ccccc1Cl (single isomer, unassigned; (+))
half-life [10]: 5.5 h
bioavailability [11]: 75%
clearance [3]: 30 mL/min/kg
IC50 (Cytochrome P450 3A4): > 20 µM
logD [7]: 2.2
IC50 [6]: 0.009 µM

SMILES: Cc1c(-c2cccs2)nc2ccc(Br)cc2c1C(=O)NCCc1cccnc1
inhibition (Prostacyclin receptor): inactive
inhibition [12]: inactive
inhibition [13]: inactive
inhibition [14]: inactive
IC50 [15]: 4.4 µM
inhibition [16]: inactive
IC50 [5]: 1.4 µM
Ratio IC50 (Homo sapiens [17]): > 3.1
Ratio IC50 (Homo sapiens [18]): > 3.1
Ratio IC50 (Homo sapiens [8]): > 3.1
Ratio IC50 (Homo sapiens [19]): > 3.1
Ratio IC50 (Homo sapiens [20]): > 3.1
Ratio IC50 (Homo sapiens [21]): > 3.1
IC50 [6]: 1.8 µM

SMILES: Cc1c(-c2ccccc2)nc2ccc(Br)cc2c1C(=O)NCC(C(=O)O)c1ccccc1Cl (stereo in doubt; 31)
Fh at 1 µM [1]: 78%
CLhep predicted at 1 µM [2]: 15 mL/min/kg
clearance [3]: 55 mL/min/kg

SMILES: Cc1c(-c2ccccc2)nc2ccc(Br)cc2c1C(=O)NC12CCC(C(=O)O)(CC1)CC2
IC50 (Cytochrome P450 2D6): > 10 µM
IC50 (Cytochrome P450 2C9): > 10 µM
IC50 (Cytochrome P450 2C8): > 10 µM
IC50 (Cytochrome P450 1A2): > 10 µM
half-life [10]: 15 h
bioavailability [11]: 100%
clearance [22]: 0.5 mL/min/kg
IC50 (Cytochrome P450 3A4): > 10 µM
bioavailability [23]: 90%
